The record followed here is patent publication US5593835A, “Methods and kits for RNA binding compounds” (President and Fellows of Harvard College, priority 1995, dated 1997).

Test [1] concerns the target clone W13 RNA (SEQ ID NO:1), tobramycin-selected RNA aptamer. Kind of test: Equilibrium dialysis binding to clone W13 RNA. Conditions: competition studies with 3H-acetyl tobramycin; read-out: dissociation constant. Here is the method:
One of these RNAs, clone W13 (SEQ ID NO:1) was chosen for quantitative studies to determine the specificity of its binding to RNA. […] The dissociation constant for tobramycin was determined to be 3 μM by competition studies with ^3 H-acetyl tobramycin. These values are close to those measured for tobramycin and ^3 H-acetyl tobramycin binding to ribosomal targets (LeGoffic et al. (1979) Eur. J. Biochem. 102: 73-81).
Equilibrium dialysis measurements were performed according to the procedure of Lorsch et al. (Biochem. (1994) 33: 973-982).
Background: In equilibrium dialysis only unbound substance equilibrates across the membrane.

The target in test [2] is X1 RNA (SEQ ID NO: 3 in Table 3; SEQ ID NO:2 in text). Kind of test: Fluorescence binding measurements, X1 RNA. On the procedure:
The binding of tobramycin to two cloned RNAs X1 (SEQ ID NO:2) and J6 (SEQ ID NO:5), representative of both classes of consensus sequences, was measured using the fluorescence techniques described in the exemplification.
Steady state fluorescence measurements were performed on a double beam fluorescence spectrometer (Perkin-Elmer Model 512, Norwalk, Conn.). The excitation wavelength was 341 nm. All measurements were done at 20° C. in 140 mM NaCl, 5 mM KCl, 1 mM CaCl2, 1 mM MgCl2, and 20 mM HEPES, pH 7.4. The KD of the PYT and the RNA aptamer was calculated by the curve fitting of the fluorescence intensity as a function of RNA concentration, using the following equation
Competition binding measurements of antibiotics with RNA and PYT were performed at constant concentrations of PYT and RNA by monitoring fluorescence intensity changes as a function of changing concentrations of the antibiotics (a standard fluorescence curve). The KD s for the antibiotics were calculated by the curve fitting of the fluorescence intensity of PYT as a function of antibiotic concentration, using the following equation: […]

In test [3] the test system is RNA pool transcribed from DNA after the sixth selection, bound to tobramycin affinity column. As to the kind of experiment: Elution of bound RNA from tobramycin affinity column. Type of test: binding. To be noted: 3 column volumes of 10 mM tobramycin. From the text:
Elution patterns of the RNA from the columns are shown in FIG. 4 for the second and sixth selections. Over 6 cycles of selection, the percentages of RNA specifically eluted with tobramycin were <0.1%, 3.0%, 2.9%, 26%, 55%, and 82%. […] The RNA pool transcribed from DNA after the sixth selection could not be eluted from the affinity column, even after 100 column volumes of selection buffer.
An N-hydroxysuccinimide Affi-Gel affinity column (Bio-Rad, Hercules, Calif.) was derivatized with either 20 μmoles or 0.075 μmoles tobramycin per ml of gel to generate the affinity columns. Excess N-hydroxysuccinimide linkages were blocked by adding 1M ethanolamine. The resulting column served as the support for the RNA selections. The tobramycin concentration on column was estimated as about 15 mM. Selections were performed in 1 ml column volumes in a buffer (selection buffer) containing 140 mM NaCl, 5 mM KCl, 1 mM CaCl2, 1 mM MgCl2, and 20 mM Tris acetate, pH 7.4 (Bock et al. (1992) Nature 355: 564-566). A 1 ml Affi-Gel 10 pre-column treated with ethanolamine was used in all selections.
The original double stranded DNA pool was constructed by large scale PCR amplification of the synthesized 109mer random DNA pool (Oligos, Etc., Inc., Wilsonville, Oreg.) containing 60 random nucleotides. […]

Molecules are shown by their SMILES. Where two headings read alike, the source gives them in different places.

Take `NC[C@H]1O[C@H](O[C@H]2[C@H](O)[C@@H](O[C@H]3O[C@H](CO)[C@@H](O)[C@H](N)[C@H]3O)[C@H](N)C[C@@H]2N)[C@H](N)C[C@@H]1O` [tobramycin]: the Kd was determined as 3000 nM in test [1]; 3 ± 1 nM in test [2] (K1 - high affinity, read-out: Dissociation Constants K1(TOB)); 15900 ± 700 nM in test [2] (K2 - low affinity, read-out: Dissociation Constants K2(TOB)). Besides, the “RNA eluted from tobramycin affinity column” value in test [3] was 96%.
